{"source": "patent US4889871A", "about": "“Alkoxy-substituted dihydrobenzopyran-2-carboxylate derivatives” (G. D. Searle & Co., priority 1988, dated 1989)", "key": {"[1]": {"biological_target": "T1, guinea pig ileum (Cavia porcellus, UniProt Q2NNR5)", "T1 construct": "from tissue; host or cells: guinea pig ileum segments", "T1 sequence (Q2NNR5 1-340)": "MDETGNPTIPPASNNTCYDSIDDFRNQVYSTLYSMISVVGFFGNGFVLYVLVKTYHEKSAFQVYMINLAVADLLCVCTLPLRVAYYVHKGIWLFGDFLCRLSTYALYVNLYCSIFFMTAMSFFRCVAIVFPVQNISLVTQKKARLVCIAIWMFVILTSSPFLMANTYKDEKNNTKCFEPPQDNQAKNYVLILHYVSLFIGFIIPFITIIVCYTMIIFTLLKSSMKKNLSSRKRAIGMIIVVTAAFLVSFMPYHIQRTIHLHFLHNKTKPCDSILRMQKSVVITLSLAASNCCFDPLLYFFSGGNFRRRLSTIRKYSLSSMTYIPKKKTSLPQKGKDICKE", "test": "LTD4 antagonism in guinea pig ileum (contraction)", "experimental": "Fresh segments of guinea pig ileum were suspended in 2 ml. tissue baths containing oxygenated modified Tyrodes solution. […] The ileum segments were washed and rested between exposures to agonist. Following this, the tissues were incubated with a single concentration of test compound and the agonist dose-response procedure was repeated. The dose ration is a measure of the antagonist's ability to shift the agonist dose-response curve to the right. It is derived as the concentration of agonist necessary to reach a given response level in the present (A') versus the absence (A) of antagonist. For example, if the test concentration of compound had no effect on the agonist-induced response (A'=A) the dose-ratio would approximate 1. […] One dose-ratio value is determined for each strip of ileum used to test antagonist. […] Schild analysis examines the linearity of the function described by the dose-ratios written as log (A'/A) versus antagonist concentration. If linearity is confirmed and the slope approximates -1, inhibition is considered to be competitive. […] This value is considered to be a measure of the affinity of the competitive antagonist."}, "[2]": {"tested_on": "human neutrophils", "test": "Modified Boyden chamber chemotaxis (LTB4, human neutrophils)", "assay_type": "cell-based", "details": "Neutrophil", "experimental": "Human neutrophils were isolated from citrated peripheral blood using standard techniques of dextran sedimentation, followed by centrifugation on Histopaque® sterile solution (Sigma) or Ficoll-paque® (Pharmacia) and hypotonic lysis of erythrocytes. A final cell suspension of 3.4×10^6 neutrophils/ml of HEPES-buffered Hanks balanced salt solution (HBSS, pH 7.3) was added to the upper well (0.8 ml) of a modified Boyden chamber (blind well). The lower well (0.2 ml), separated by a polycarbonate membrane (Nuleopore Corp.), contained HBSS or 3×10^-8 M LTB4 in the presence of absence of test compound. Following a 90 minute incubation at 37° C. in 5% CO2 -95% air, cells from the lower well were lysed and nuclei counted in a Model S-Plus-IV Coulter Counter. Percent inhibition was calculated from cell counts corrected for random migration by subtracting the mean of the HBSS control."}, "[3]": {"biological_target": "T2, LTB4 receptor (Homo sapiens, UniProt Q15722)", "T2 construct": "Neutrophils were purified from venous blood of normal human donors; endogenous in cells; host or cells: purified human blood neutrophils (intact cells)", "T2 sequence (Q15722 whole entry)": "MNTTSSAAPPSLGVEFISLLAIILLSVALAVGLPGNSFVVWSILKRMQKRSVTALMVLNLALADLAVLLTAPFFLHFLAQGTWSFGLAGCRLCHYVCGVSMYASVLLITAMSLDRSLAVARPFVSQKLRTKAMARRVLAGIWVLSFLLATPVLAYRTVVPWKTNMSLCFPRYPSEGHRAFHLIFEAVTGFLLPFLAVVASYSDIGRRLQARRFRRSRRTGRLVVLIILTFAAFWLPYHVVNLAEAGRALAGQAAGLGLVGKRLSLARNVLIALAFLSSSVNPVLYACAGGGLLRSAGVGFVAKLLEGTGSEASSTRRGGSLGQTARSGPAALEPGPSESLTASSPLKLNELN", "test": "LTB4 receptor binding assay ((3H) LTB4, human neutrophils)", "experimental": "Neutrophils (4-6×10^6) in 1 ml Hanks' balanced salt solution containing 10 mM HEPES buffer (HBSS), pH 7.4 and 30 μM nordihydroguaiaretic acid were incubated with 0.6×10^-9 M (^3 H) LTB4 in the presence or absence of test compounds. The incubation was carried out at 0° C. for 45 minutes and terminated by adding 5 ml of ice-cold HBSS followed by rapid filtration of incubation mixture under vacuum through GF/C glass fiber filters. The filters were further washed with 10 ml HBSS and radioactivity was determined. Specific binding was defined as the difference between total binding and nonspecific binding which was not displaced by 10^-7 M unlabeled LTB4. All data refer to specific binding."}, "[4]": {"biological_target": "T3, LTD4 receptor (Cavia porcellus, UniProt Q2NNR5)", "T3 construct": "from tissue; host or cells: lung membranes of male Hartley guinea pigs", "T3 sequence (Q2NNR5 1-340)": "T1 sequence (Q2NNR5 1-340)", "test": "LTD4 receptor binding assay using guinea pig lung membrane preparations", "experimental": "MEMBRANE PREPARATIONS: For each membrane preparation, 10-11 male Hartley guinea pigs, weighing less than 350 gm, were sacrificed by guillotine. The lungs were rapidly removed and placed in ice-cold 50 mM Trisma 7.0 buffer. After all the lungs were collected, each was probed free of bronchial tissue to at least the level of tertiary branching as observed through a dissecting lamp. The tissue was minced with a razor blade on a damp paper towel and placed into fresh ice-cold Trisma 7.0 buffer. When all the tissues had been processed, they were pooled, drained and weighed. Nine volumes of cold buffer were added and the tissue was polytroned for 6-10 second bursts with a 1 minute cool down period in an ice bath between each burst. The homogenate was filtered through a gauze pad and centrifuged at 1085× g for 15 minutes at 4° C. Supernatants were saved and centrifuged at 40,000× g for 20 minutes at 4° C. This time, supernatants were discarded and the pellets were resuspended in 30-35 ml fresh Trisma 7.0 buffer by 1-10 second bursts with the polytron. The materials were centrifuged again at 40,000× g. Supernatants were again discarded. Each pellet was resuspended again with approximately 7 ml buffer. All this material was pooled into a 100 ml polypropylene container and stirred with a magnetic stirring bar. The tubes were rinsed with small amounts of buffer and the rinse was added to the membrane preparation. The homogenized membranes were aliquoted into 1.5 ml microfuge tubes and frozen at -70° C. Three aliquots were submitted for protein determinations by FPB (fluorescamine protein binding) assay.\nUnless otherwise indicated, all binding experiments were performed in a final incubation volume of 250 μl. […] Both materials were received in solutions. […] Both solutions were brought to appropriate assay concentrations by dilution in assay buffer consisting of 50 mM Trisma 7.4 with 5 mM L-cysteine and 20 mM CaCl2. Membranes were also diluted with this assay buffer. […] Diluent was added to all other appropriate control tubes. Incubations were conducted for 30 minutes at 25° C. in a shaking water bath. Termination of the reaction was achieved by pouring the incubate over 2.5 cm Whatman GF/C filters soaked in assay buffer and set over the ports of Millipore filter vacuum manifolds. Filters were rinsed with 4 ml ice cold assay buffer 3 times. The filters were removed, placed in 10 ml Aquasol scintillation cocktail and allowed to cool in the dark for 2 hours prior to counting. All samples were corrected for background and isotope decay before converting DPM determination to mass.\nThese values were logit-transformed and linear regression was performed on the dose-response data. All dose-response sets used to calculate IC50 values contained data from 3-6 compound concentrations. […] IC50 values were calculated from the regression equation for the line.\nmale guinea pig lung homogenate which was aliquoted and stored at\n-70° C. The particular preparation used to test the compounds of\nProtein concentrations in these assays were adjusted\nto provide aproximately 0.1 nM receptor in the presence of lnM ^3\nHLTD4. Incubation was conducted for 30 min.\nat 24° C. and filtration methods were used to separate bound from\ntested were intially solubilized in DMSO. Each compound was evaluated at\ndose of 10 μM (10^-5 M) in triplicate in 2 separate assays. The"}, "[5]": {"details": "relative to Compound III where --OCH3 is replaced with --OH"}}, "note": "pIC50: −log10 of the molar value. Read-outs that look alike come from different tables or passages of the source.", "data": [{"molecule": "CCCc1c(OCCCOc2ccc(C(C)=O)c(OC)c2CCC)ccc2c1OC(C(=O)O)CC2", "note": "(stereo not drawn) [Example 1, 7-[3-(4-acetyl-3-methoxy-2-propylphenoxy)propoxy]-3,4-dihydro-8-propyl-2H-1-benzopyran-2-carboxylic acid]", "values": [{"measurement": "Kb", "setting": "[1]; read-out: Guinea Pig Ileum Contraction pA2 (converted)", "value": "≥ 316", "unit": "nM"}, {"measurement": "less active as an LTD4 antagonist in the guinea pig ileum smooth muscle contraction test", "setting": "[1]; [5]", "value": "at least 10 ×"}, {"measurement": "pIC50", "setting": "[2]", "value": 5.52}, {"measurement": "inhibition at 0.3 µM", "setting": "[3]; 0.75 h, read-out: LTB4 Receptor Binding (percent at stated concentration)", "value": 50, "unit": "%"}, {"measurement": "more potent than the --OH compound in LTB4 receptor binding", "setting": "[3]; [5]", "value": "about 5 ×"}, {"measurement": "Receptor Binding LTD4 IC50", "setting": "[4]; Table 1, results are from Table 3, 10^-5 M", "value": "Inactive"}, {"measurement": "inhibition at 10 µM", "setting": "[4]; read-out: LTD4 Receptor Binding Activity", "value": "< 45", "unit": "%"}, {"measurement": "inhibition at 10 µM", "setting": "[4]; read-out: LTD4 Receptor Binding Percent Inhibition, Test #1, triplicate, 30 min, 24° C.", "value": 4.07, "unit": "%"}, {"measurement": "inhibition at 10 µM", "setting": "[4]; read-out: LTD4 Receptor Binding Percent Inhibition, Test #2, triplicate, 30 min, 24° C.", "value": 16.4, "unit": "%"}]}]}
